Reference: patent US20080318960A1, “PAR2-modulating compounds and their use” (priority 2005, published 2008)
pEC50: −log10 of the molar value.

What was measured:
Assay type in all cases: cell-based
[1] = biological target: T1, human PAR2 (Homo sapiens, UniProt P55085); test: Receptor Selection and Amplification Technology (R-SAT) functional receptor assay; parameters: expressed in transfected cells; host or cells: NIH3T3 cells, pSI-derived mammalian expression vector; conditions: for pEC50: NIH3T3 cells transfected with PAR2, PAR2 activation, negative log of EC50 in Molar; for Emax: NIH3T3 cells transfected with PAR2, percent maximal activation relative to SLIGRL, read-out: % Efficacy
T1 sequence (P55085 26-397): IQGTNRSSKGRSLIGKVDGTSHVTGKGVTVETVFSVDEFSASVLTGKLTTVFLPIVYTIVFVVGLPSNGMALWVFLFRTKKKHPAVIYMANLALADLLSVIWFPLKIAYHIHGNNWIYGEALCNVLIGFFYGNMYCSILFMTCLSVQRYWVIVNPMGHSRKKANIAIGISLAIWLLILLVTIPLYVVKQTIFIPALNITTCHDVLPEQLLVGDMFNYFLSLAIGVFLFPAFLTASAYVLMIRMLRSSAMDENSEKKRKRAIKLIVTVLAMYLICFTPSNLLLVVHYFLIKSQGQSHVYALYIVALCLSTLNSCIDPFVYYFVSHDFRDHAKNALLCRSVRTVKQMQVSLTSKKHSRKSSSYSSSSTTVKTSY
Procedure: The functional receptor assay, Receptor Selection and Amplification Technology (R-SAT), was used to investigate the pharmacological properties of known and novel PAR2 compounds. R-SAT is disclosed in U.S. Pat. Nos. 5,707,798, 5,912,132, and 5,955,281, all of which are hereby incorporated herein by reference in their entirety, including any drawings.
Briefly, NIH3T3 cells were grown in 96 well tissue culture plates to 70-80% confluence. Cells were transfected for 16-20 h with plasmid DNAs using Polyfect (Qiagen Inc.) as per manufacturer's protocols. R-SATs were generally performed with 4 ng/well of receptor and 20 ng/well of β-galactosidase plasmid DNA. All receptor constructs used were in the pSI-derived mammalian expression vector (Promega Inc) as described previously. The PAR2 gene was amplified by PCR from genomic DNA using oligodeoxynucleotide primers based on the published sequence (GenBank Accession # Z49993 and Z49994). For large-scale transfections, cells were transfected for 16-20 h, then trypsinized and frozen in DMSO. Frozen cells were later thawed, plated at ˜10,000 cells per well of a 96 half-area well plate that contained drug. With both methods, cells were then grown in a humidified atmosphere with 5% ambient CO2 for five days. Media was then removed from the plates and marker gene activity was measured by the addition of the β-galactosidase substrate o-nitrophenyl β-D-galactopyranoside (ONPG, in PBS with 0.5% NP-40). The resulting colorimetric reaction was measured in a spectrophotometric plate reader (Titertek Inc.) at 420 nm. All data were analyzed using the computer program XLFit (IDBSm). Efficacy is the percent maximal activation compared to activation by a control compound, the PAR2 activating hexapeptide SLIGRL (serine-leucine-isoleucine-glycine-arginine-leucine). pEC50 is the negative of the log (EC50), where EC50 is the calculated concentration in Molar that produces 50% maximal activation.
These experiments provide a molecular profile, or fingerprint, for each of these agents at human PAR2.
Efficacy is relative to that of SLIGRL.

[2] = biological target: T1, human PAR2; test: Determination of changes in inositol phosphates in transfected tsA cells; conditions: inositol phosphate hydrolysis, transfected tsA cells (transformed HEK293), 45 min with ligand; for Emax: TS/A, read-out: % Efficacy
Procedure: Seed tsA cells (a transformed HEK293 cell line) at 10,000 cells/0.1 ml per well of 96 well plates at 37 C in a humidified 5% CO2 incubator in DMEM supplemented with 10% fetal calf serum, penicillin (100 units/ml) and streptomycin ([…]) and grown overnight.
Transfect the cells with plasmid DNAs coding receptors or G-protein helpers when needed using PolyFect according to the RSAT protocol described previously. At 18-20 h post-transfection, the medium is removed and the cells are labeled overnight with 2 uCi/ml myo-[2-3H] inositol (0.1 ml/well) freshly made in the culture medium.
Remove the medium and wash cells with Hank's Balanced Salt Solutions (HBSS) containing 1 mM CaCl2, 1 mM MgCl2, 20 mM LiCl and 0.1% BSA. The cells are then incubated with ligands for 45 min at 37 C (0.1 ml/well) and the reaction is stopped by exchanging the buffer with 150 ul/well ice-cold 20 mM formic acid. Add 50 ul/well 0.2M ammonium and store plates at −80 C or process samples immediately.
To separate total [3H] inositol phosphates (IPs) ion-exchange chromatography columns are loaded with 200 ul of AG 1-X8 resin suspension (50% resin and 50% water) and the cell extracts were applied to the columns. Wash the columns with 1 ml 40 mM ammonium hydroxide (pH9) and elute [3H] IPs into the 2 ml deep-well blocks with 0.4 ml 2M ammonium format/0.1M formic acid. Wash the columns with 0.6 ml water. Transfer the eluates into 7 ml scintillation vials and add 5 ml liquid scintillation cocktail. Mix well, leave the vials in the dark for at least 4 h and count on LS 6500 Multi-purpose Scintillation Counter (3 min/vial). This procedure collects IP1, IP2 and IP3.
As shown in Table 3 and FIG. 4, these experiments have shown these agents act at human PAR2 to stimulate inositol phosphate hydrolysis.

[3] = biological target: T1, human PAR2; test: Determination of changes in cytosolic calcium in transfected CHO-K1 cells; conditions: intracellular calcium mobilization; for pEC50: CHO-K1 cells transfected with PAR2, Fura-2; for Emax: CHO-K1 cells transfected with PAR2, response compared to SLIGRL at 100 nM, read-out: % Efficacy
Procedure: 1. CHO-K1 cells transfected with PAR2 or a control receptor at a density 1-3×10^6 cells/ml are washed with phosphate-buffered saline.
2. Cells are loaded with 2 μM Fura-2 and analyzed with respect to the rise in intracellular calcium in the presence or absence of varying concentration of compound.
3. The response is compared to that elicited by the application of the standard reference ligand SLIGRL when tested at 100 nM.
Intracellular free calcium concentrations are calculated using the formula:
where Kd for Fura-2 is 224 nM, Fmax is the fluorescence in the presence of 0.04% Triton-X100 and Fmin is the fluorescence obtained after the addition of 5 mM EGTA in 30 mM Tris-HCl, pH7.4.
As shown in Table 2 and FIG. 3, these experiments have shown these agents act at human PAR2 to stimulate intracellular calcium mobilization.

SMILES | pEC50 [1] | Emax [1] | Emax [2] | pEC50 [2] | pEC50 [3] | Emax [3]
C/C(=N\NC(=O)C(NC(=O)c1ccccc1)c1n[nH]c(=O)c2ccccc12)c1cccc(C)c1 (stereo not drawn) [Compound 31, N-[2-{(2E)-2-[1-(3-methylphenyl)ethylidene]hydrazino}-2-oxo-1-(4-oxo-3,4-dihydro-1-phthalazinyl)ethyl]benzamide] | 6.50 | 118% | – | – | – | –
C/C(=N\NC(=O)C(NC(=O)c1ccccc1)c1n[nH]c(=O)c2ccccc12)c1cccc(Br)c1 (stereo not drawn) [Compound 3, N-[2-{(2E)-2-[1-(3-bromophenyl)ethylidene]hydrazino}-2-oxo-1-(4-oxo-3,4-dihydro-1-phthalazinyl)ethyl]benzamide] | 6.90 | 98% | 120% | 5.60 | 5.40 | 72%
C/C(=N\NC(=O)C(NC(=O)c1ccccc1)c1n[nH]c(=O)c2ccccc12)c1cc(C)cc(C)c1 (stereo not drawn) [Compound 43, N-[2-{(2E)-2-[1-(3,5-dimethylphenyl)ethylidene]hydrazino}-2-oxo-1-(4-oxo-3,4-dihydro-1-phthalazinyl)ethyl]benzamide] | 7.10 | 122% | 130% | 5.00 | 5.10 | 85%

The next lines start with the values.

pEC50 [1] | Emax [1] | Emax [2] | pEC50 [2] | pEC50 [3] | Emax [3] | SMILES
6.30 | 111% | – | – | – | – | CC/C(=N\NC(=O)C(NC(=O)c1ccccc1)c1n[nH]c(=O)c2ccccc12)c1cccc(Br)c1 (stereo not drawn) [Compound 25, N-[2-{(2E)-2-[1-(3-bromophenyl)propylidene]hydrazino}-2-oxo-1-(4-oxo-3,4-dihydro-1-phthalazinyl)ethyl]benzamide]
6.80 | 112% | – | – | – | – | C/C(=N\NC(=O)C(NC(=O)c1ccccc1)c1n[nH]c(=O)c2ccccc12)c1cccc(Cl)c1 (stereo not drawn) [Compound 28, N-[2-{(2E)-2-[1-(3-chlorophenyl)ethylidene]hydrazino}-2-oxo-1-(4-oxo-3,4-dihydro-1-phthalazinyl)ethyl]benzamide]
6.50 | 132% | – | – | – | – | C/C(=N\NC(=O)C(NC(=O)c1ccccc1)c1n[nH]c(=O)c2ccccc12)c1cccc(C#N)c1 (stereo not drawn) [Compound 29, N-[2-{(2E)-2-[1-(3-cyanophenyl)ethylidene]hydrazino}-2-oxo-1-(4-oxo-3,4-dihydro-1-phthalazinyl)ethyl]benzamide]
6.10 | 79% | – | – | – | – | COc1cccc(/C(C)=N/NC(=O)C(NC(=O)c2ccccc2)c2n[nH]c(=O)c3ccccc23)c1 (stereo not drawn) [Compound 6, N-[2-{(2E)-2-[1-(3-methoxyphenyl)ethylidene]hydrazino}-2-oxo-1-(4-oxo-3,4-dihydro-1-phthalazinyl)ethyl]benzamide]
6.60 | 77% | – | – | – | – | C/C(=N\NC(=O)C(NC(=O)c1ccccc1)c1n[nH]c(=O)c2ccccc12)c1cccc(C(F)(F)F)c1 (stereo not drawn) [Compound 27, N-[2-oxo-1-(4-oxo-3,4-dihydro-1-phthalazinyl)-2-((2E)-2-{1-[3-(trifluoromethyl)phenyl]ethylidene}hydrazino)ethyl]benzamide]
